Test results reported in the NIST ThermoML archive (doi:10.1016/j.jct.2013.05.051).

Experiment: xn = mol fraction of the nth substance listed
Conditions: Liquid, Vibrating tube method, x2 = 0

CCCCCCC [heptane] + CCCCCCCO
mass density [kg/m3]
Conditions | 298.15 K | 313.15 K | 333.15 K | 353.15 K | 373.15 K | 393.15 K
100 kPa | 679.5 | 666.6 | 648.9 | 631.2 | – | –
1000 kPa | 680.4 | 667.6 | 650 | 632.1 | 613.3 | 593.5
5000 kPa | 684.2 | 671.8 | 655 | 637.8 | 620.1 | 601.7
10000 kPa | 688.6 | 676.7 | 660.6 | 644.3 | 627.7 | 610.6
15000 kPa | 692.8 | 681.3 | 665.8 | 650.3 | 634.5 | 618.4
20000 kPa | 696.7 | 685.6 | 670.6 | 655.7 | 640.7 | 625.4
25000 kPa | 700.4 | 689.5 | 675.1 | 660.8 | 646.3 | 631.7
30000 kPa | 704 | 693.5 | 679.4 | 665.5 | 651.6 | 637.5
35000 kPa | 707.4 | 697.1 | 683.4 | 670 | 656.5 | 643
40000 kPa | 710.7 | 700.5 | 687.3 | 674.1 | 661.1 | 648
45000 kPa | 713.8 | 703.9 | 690.9 | 678.1 | 665.5 | 652.8
50000 kPa | 716.8 | 707.2 | 694.4 | 682 | 669.6 | 657.2
55000 kPa | 719.7 | 710.3 | 697.7 | 685.5 | 673.5 | 661.5
60000 kPa | 722.5 | 713.3 | 701 | 689.1 | 677.3 | 665.5
65000 kPa | 725.2 | 716.1 | 704.1 | 692.4 | 680.8 | 669.3
70000 kPa | 727.9 | 718.9 | 707.1 | 695.7 | 684.3 | 673.1
80000 kPa | 732.9 | 724.2 | 712.8 | 701.7 | 690.8 | 680.1
90000 kPa | 737.7 | 729.3 | 718.2 | 707.5 | 696.9 | 686.5
100000 kPa | 742.3 | 734 | 723.2 | 712.8 | 702.6 | 692.5
110000 kPa | 746.6 | 738.6 | 728.1 | 717.9 | 708 | 698.2
120000 kPa | 750.7 | 742.8 | 732.6 | 722.7 | 713 | 703.4
130000 kPa | 754.6 | 747 | 737 | 727.3 | 717.9 | 708.5
140000 kPa | 758.4 | 751.1 | 741.1 | 731.6 | 722.3 | 713.4
